Conditions: Liquid

CC(=O)C(C)=O [2,3-butanedione]
Conditions | vapor or sublimation pressure [kPa]
314.3 K | 19.06
320.55 K | 24.04
325.62 K | 29.03
329.85 K | 33.91
333.64 K | 39
336.76 K | 43.59
339.99 K | 48.97
342.8 K | 53.85
345.41 K | 58.83
347.62 K | 63.83
349.9 K | 68.81
351.89 K | 73.79

CCC(=O)C(C)=O [2,3-pentanedione]
Conditions | vapor or sublimation pressure [kPa]
331.84 K | 15.37
338.38 K | 20.36
343.73 K | 25.35
348.13 K | 30.35
352.15 K | 35.34
355.74 K | 40.33
358.85 K | 45.32
361.89 K | 50.21
364.69 K | 55.21
367.09 K | 60.2
369.44 K | 65.19
371.61 K | 70.18
373.8 K | 75.27

CC(C)=O [acetone]
Conditions | vapor or sublimation pressure [kPa]
297.67 K | 30.23
301.25 K | 35.22
307.33 K | 45.21
310.08 K | 50.4
312.52 K | 55.29
314.76 K | 60.29
316.8 K | 65.08
318.77 K | 70.07
